One series addresses p38 MAPKα (Homo sapiens (Human), UniProt Q16539). Description: p38 MAPKα enzyme inhibition (FRET, Z-LYTE). It is filed as biochemical. How it is done:
(§1) The enzyme inhibitory activities of compounds disclosed herein are determined by FRET using synthetic peptides labelled with both donor and acceptor fluorophores (Z-LYTE, Invitrogen Ltd., Paisley, UK).
The inhibitory activities of test compounds against the p38 MAPKα isoform (MAPK14: Invitrogen), are evaluated indirectly by determining the level of activation/phosphorylation of the down-stream molecule, MAPKAP-K2. The p38 MAPKα protein (80 ng/mL, 2.5 μL) is mixed with the test compound (2.5 μL of either 4 μg/mL, 0.4 μg/mL, 0.04 μg/mL or 0.004 μg/mL) for 2 hr at RT. […] The mixture is incubated for 1 hr at RT. Development reagent (protease, 5 μL) is added for 1 hr prior to detection in a fluorescence microplate reader (Varioskan® Flash, ThermoFisher Scientific).
(§2) In all cases, the site-specific protease cleaves non-phosphorylated peptide only and eliminates the FRET signal. Phosphorylation levels of each reaction are calculated using the ratio of coumarin emission (donor) over fluorescein emission (acceptor), for which low ratios indicate high phosphorylation and high ratios indicate low phosphorylation levels.

The subject of series [1] is LPS-induced TNFα release in d-U937 cells. Description: LPS-induced TNFα release in d-U937 cells. The note with it: Homo sapiens, dU937, relative to 10 μg/mL BIRB796, read-out: LPS Induced Release of Cytokine in d-937 Cells TNFα REC50. It is filed as cell-based. How it is done: (§3) U937 cells, a human monocytic cell line, are differentiated into macrophage-type cells by incubation with PMA (100 ng/mL) for 48 to 72 hr. Cells are pre-incubated with final concentrations of test compound for 2 hr and are then stimulated with LPS (0.1 μg/mL) (from E. coli: O111:B4, Sigma) for 4 hr. The supernatant is collected for determination of TNFα and IL-8 concentrations by sandwich ELISA (Duo-set, R&D systems). […] The relative 50% effective concentration (REC50) is determined from the resultant concentration-response curve. The inhibition of IL-8 production is calculated at each concentration of test compound by comparison with vehicle control. […] (b) LPS-Induced TNFα/IL-8 Release in PBMC Cells

For another series, the target named is cSrc (Homo sapiens (Human), UniProt P12931). Description: c-Src enzyme inhibition (FRET, Z-LYTE). It is filed as biochemical. How it is done:
as §1
(§4) The relevant enzyme (3000 ng/mL or 2000 ng/mL respectively, 2.5 μL) is incubated with the test compound (either 4 μg/mL, 0.4 μg/mL, 0.04 μg/mL, or 0.004 μg/mL, 2.5 μL each) for 2 hr at RT. The FRET peptides (8 μM, 2.5 μL), and appropriate ATP solutions (2.5 μL, 800 μM for c-Src, and 60 μM ATP for Syk) are then added to the enzymes/compound mixtures and incubated for 1 hr. Development reagent (protease, 5 μL) is added for 1 hr prior to detection in a fluorescence microplate reader (Varioskan® Flash, ThermoFisher Scientific).
as §2

For another series, the target named is GSK3α (Homo sapiens (Human), UniProt P49840). Description: GSK 3α enzyme inhibition (FRET, Z-LYTE). It is filed as biochemical. How it is done: as §1
The inhibitory activities of compounds of the invention against the GSK 3α enzyme isoform (Invitrogen), are evaluated by determining the level of activation/phosphorylation of the target peptide. The GSK3-α protein (500 ng/mL, 2.5 μL) is mixed with the test compound (2.5 μL at either 4 μg/mL, 0.4 μg/mL, 0.04 μg/mL, or 0.004 μg/mL) for 2 hr at RT. The FRET peptide (8 μM, 2.5 μL), which is a phosphorylation target for GSK3α, and ATP (40 μM, 2.5 μL) are then added to the enzyme/compound mixture and the resulting mixture incubated for 1 hr. Development reagent (protease, 5 μL) is added for 1 hr prior to detection in a fluorescence microplate reader (Varioskan® Flash, ThermoFisher Scientific).
as §2

The target in another series is Syk (Homo sapiens (Human), UniProt P43405). Description: Syk enzyme inhibition (FRET, Z-LYTE). It is filed as biochemical. How it is done:
as §1, §4, §2

In the next series the test system is d-U937 cells. Description: Cell viability: MTT assay. It is filed as cell-based, human. The following applies: 1 μg/mL. How it is done:
Differentiated U937 cells are pre-incubated with each test compound (final concentration 1 μg/mL or 10 μg/mL in 200 μL media indicated below) under two protocols: the first for 4 hr in 5% FCS RPMI1640 media and the second in 10% FCS RPMI1640 media for 24 h. The supernatant is replaced with new media (200 μL) and MTT stock solution (10 μL, 5 mg/mL) is added to each well. After incubation for 1 hr the media are removed, DMSO (200 μL) is added to each well and the plates are shaken lightly for 1 hr prior to reading the absorbance at 550 nm. The percentage loss of cell viability is calculated for each well relative to vehicle (0.5% DMSO) treatment. Consequently an apparent increase in cell viability for drug treatment relative to vehicle is tabulated as a negative percentage.

For series [2], the system named is Poly I:C-induced ICAM-1 expression in BEAS2B cells. Description: Poly I:C-induced ICAM-1 expression in BEAS2B cells. The note with it: Homo sapiens, BEAS-2B, read-out: Poly IC induced ICAM1 in BEAS2B IC50. It is filed as cell-based. How it is done:
Poly I:C is used in these studies as a simple, RNA virus mimic. Poly I:C-Oligofectamine mixture (1 μg/mL Poly I:C, ±2% Oligofectamine, 25 uL) (Invivogen Ltd., San Diego, Calif., and Invitrogen, Carlsbad, Calif., respectively) is transfected into BEAS2B cells (human bronchial epithelial cells, ATCC). Cells are pre-incubated with final concentrations of test compounds for 2 hr and the level of ICAM1 expression on the cell surface is determined by cell-based ELISA. At a time point 18 hr after poly I:C transfection, cells are fixed with 4% formaldehyde in PBS (100 μL) and then endogenous peroxidase is quenched by the addition of washing buffer (100 μL, 0.05% Tween in PBS: PBS-Tween) containing 0.1% sodium azide and 1% hydrogen peroxide. Cells are washed with wash-buffer (3×200 μL). and after blocking the wells with 5% milk in PBS-Tween (100 μL) for 1 hr, the cells are incubated with anti-human ICAM-1 antibody (50 μL) (Cell Signaling Technology, Danvers, Mass.) in 1% BSA PBS overnight at 4° C.
The cells are washed with PBS-Tween (3×200 μL) and incubated with the secondary antibody (100 μL) (HRP-conjugated anti-rabbit IgG, Dako Ltd., Glostrup, Denmark). The cells are then incubated with of substrate (50 μL) for 2-20 min, followed by the addition of stop solution (50 μL, 1N H2SO4). The ICAM-1 signal is detected by reading and reading the absorbance at 450 nm against a reference wavelength of 655 nm using a spectrophotometer. The cells are then washed with PBS-Tween (3×200 μL) and total cell numbers in each well are determined by reading absorbance at 595 nm after Crystal Violet staining (50 μL of a 2% solution in PBS) and elution by 1% SDS solution (100 μL) in distilled water. The measured OD 450-655 readings are corrected for cell number by dividing with the OD595 reading in each well.

In series [3] the test system is LPS-induced IL-8 release in d-U937 cells. Description: LPS-induced IL-8 release in d-U937 cells. It is filed as cell-based. The note with it: Homo sapiens, dU937, read-out: LPS Induced Release of Cytokine in d-937 Cells IL-8 IC50. How it is done: as §3

Sequence of p38 MAPKα (Q16539 whole entry): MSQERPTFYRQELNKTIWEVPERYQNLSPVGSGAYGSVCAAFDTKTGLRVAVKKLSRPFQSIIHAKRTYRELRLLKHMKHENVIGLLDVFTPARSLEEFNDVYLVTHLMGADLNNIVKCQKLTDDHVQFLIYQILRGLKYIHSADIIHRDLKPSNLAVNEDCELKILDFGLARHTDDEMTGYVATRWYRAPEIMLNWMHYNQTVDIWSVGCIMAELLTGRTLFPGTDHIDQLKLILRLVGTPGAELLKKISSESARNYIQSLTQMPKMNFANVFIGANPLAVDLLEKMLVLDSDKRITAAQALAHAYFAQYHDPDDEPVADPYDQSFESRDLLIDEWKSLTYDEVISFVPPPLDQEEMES
Sequence of cSrc (P12931 whole entry, looked up): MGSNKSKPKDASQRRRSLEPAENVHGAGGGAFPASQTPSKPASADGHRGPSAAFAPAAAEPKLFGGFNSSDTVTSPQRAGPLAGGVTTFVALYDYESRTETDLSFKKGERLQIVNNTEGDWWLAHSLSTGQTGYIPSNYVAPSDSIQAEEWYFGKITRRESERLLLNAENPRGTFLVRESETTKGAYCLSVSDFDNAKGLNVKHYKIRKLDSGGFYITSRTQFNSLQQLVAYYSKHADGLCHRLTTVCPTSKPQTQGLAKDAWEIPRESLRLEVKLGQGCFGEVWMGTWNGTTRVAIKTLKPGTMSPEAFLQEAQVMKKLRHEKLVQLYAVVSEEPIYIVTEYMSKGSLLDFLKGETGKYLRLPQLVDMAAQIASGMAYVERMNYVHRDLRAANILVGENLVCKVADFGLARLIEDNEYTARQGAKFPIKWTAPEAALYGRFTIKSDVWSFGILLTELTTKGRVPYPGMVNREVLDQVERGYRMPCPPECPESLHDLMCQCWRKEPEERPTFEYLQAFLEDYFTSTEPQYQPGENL
Sequence of GSK3α (P49840 whole entry, canonical isoform): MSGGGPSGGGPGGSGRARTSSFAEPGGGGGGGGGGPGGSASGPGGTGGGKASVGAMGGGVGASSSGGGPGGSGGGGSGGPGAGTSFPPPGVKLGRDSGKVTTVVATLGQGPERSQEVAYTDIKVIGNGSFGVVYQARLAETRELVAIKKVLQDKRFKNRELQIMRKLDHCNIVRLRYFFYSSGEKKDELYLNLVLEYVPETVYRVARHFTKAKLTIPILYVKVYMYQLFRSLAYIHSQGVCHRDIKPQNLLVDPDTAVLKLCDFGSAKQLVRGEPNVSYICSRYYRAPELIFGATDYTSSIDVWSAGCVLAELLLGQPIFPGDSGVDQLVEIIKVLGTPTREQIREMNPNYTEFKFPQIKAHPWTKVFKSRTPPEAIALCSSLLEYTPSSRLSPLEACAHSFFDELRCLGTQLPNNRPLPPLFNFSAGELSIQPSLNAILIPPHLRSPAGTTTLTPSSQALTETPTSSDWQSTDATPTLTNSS

As a reminder, the IC50 is the point on the concentration scale where inhibition reaches its midpoint. Take `CC(C)(C)c1cc(NC(=O)Nc2ccc(Oc3ccnc(Nc4ccc5ncsc5c4)n3)c3ccccc23)n(-c2ccc(OCCN3CCOCC3)cc2)n1` [Example 80, 1-(4-((2-(benzo[d]thiazol-6-ylamino)pyrimidin-4-yl)oxy)naphthalen-1-yl)-3-(3-(tert-butyl)-1-(4-(2-morpholinoethoxy)phenyl)-1H-pyrazol-5-yl)urea]: the IC50 on p38 MAPKα was 86 nM; against cSrc it was 9 nM; against GSK3α it was 461 nM; against Syk, 25 nM; in series [2], 1.9 nM; in series [3], 1.9 nM. Besides, in series [1], the EC50 came to 1.5 nM. Further, the “MTT Assay Cell viability at time point in d-U937 cells 4 h” value in the series with d-U937 cells is “−ve (−ve and +ve indicate that the value is below and above respectively, the no significant effect threshold, defined as 30% inhibition at 1 μg/mL at the time point indicated.)”. For the same compound, the “MTT Assay Cell viability at time point in d-U937 cells 24 h” value with d-U937 cells was “−ve (−ve and +ve indicate that the value is below and above respectively, the no significant effect threshold, defined as 30% inhibition at 1 μg/mL at the time point indicated.)”.
For the compound `COc1ccc(-n2nc(C(C)C)cc2NC(=O)Nc2ccc(Oc3ccnc(Nc4ccc5[nH]nc(OCCN6CCOCC6)c5c4)n3)c3ccccc23)cc1` [Example 44, 1-(3-isopropyl-1-(4-methoxyphenyl)-1H-pyrazol-5-yl)-3-(4-((2-((3-(2-morpholinoethoxy)-1H-indazol-5-yl)amino)pyrimidin-4-yl)oxy)naphthalen-1-yl)urea], the IC50 against p38 MAPKα was 5 nM; at cSrc it was 2 nM; against GSK3α, 203 nM; against Syk it was 2 nM; in series [2], 1.4 nM; in series [3] it was 0.8 nM. Besides, the EC50 in series [1] is 0.4 nM. For the same compound, the “MTT Assay Cell viability at time point in d-U937 cells 4 h” value with d-U937 cells was “−ve (−ve and +ve indicate that the value is below and above respectively, the no significant effect threshold, defined as 30% inhibition at 1 μg/mL at the time point indicated.)”. Moreover, the “MTT Assay Cell viability at time point in d-U937 cells 24 h” value in the series on d-U937 cells was “−ve (−ve and +ve indicate that the value is below and above respectively, the no significant effect threshold, defined as 30% inhibition at 1 μg/mL at the time point indicated.)”.
`Cc1ccc(-n2nc(C(C)(C)C)cc2NC(=O)Nc2ccc(Oc3ccnc(Nc4cccc5cn[nH]c45)n3)c3ccccc23)cc1` [Example 25]: the IC50 on p38 MAPKα was 523 nM; against cSrc, 46 nM; on GSK3α it was greater than 16000 nM; at Syk it was 756 nM; in series [2] it was 14.1 nM; in series [3], 1.7 nM. Further, the EC50 in series [1] stood at 0.8 nM. Also, the “MTT Assay Cell viability at time point in d-U937 cells 4 h” value in the series on d-U937 cells is “−ve (−ve and +ve indicate that the value is below and above respectively, the no significant effect threshold, defined as 30% inhibition at 1 μg/mL at the time point indicated.)”. In addition, the “MTT Assay Cell viability at time point in d-U937 cells 24 h” value in the series on d-U937 cells is “−ve (−ve and +ve indicate that the value is below and above respectively, the no significant effect threshold, defined as 30% inhibition at 1 μg/mL at the time point indicated.)”.
As to `CC(C)(C)c1cc(NC(=O)Nc2ccc(Oc3ccnc(Nc4ccc5c(cnn5CCN5CCOCC5)c4)n3)c3ccccc23)n(-c2ccc(OCCN3CCOCC3)nc2)n1` [Example 92, 1-(3-(tert-butyl)-1-(6-(2-morpholinoethoxy)pyridin-3-yl)-1H-pyrazol-5-yl)-3-(4-((2-((1-(2-morpholinoethyl)-1H-indazol-5-yl)amino)pyrimidin-4-yl)oxy)naphthalen-1-yl)urea], the IC50 at p38 MAPKα was 5 nM; at cSrc, less than 1 nM; against GSK3α, 569 nM; on Syk, less than 1 nM; in series [2] it was 5.3 nM; in series [3], 11.5 nM. Moreover, the EC50 in series [1] turned out to be 1.5 nM. Further, the “MTT Assay Cell viability at time point in d-U937 cells 4 h” value in the series with d-U937 cells is “−ve (−ve and +ve indicate that the value is below and above respectively, the no significant effect threshold, defined as 30% inhibition at 1 μg/mL at the time point indicated.)”. The “MTT Assay Cell viability at time point in d-U937 cells 24 h” value with d-U937 cells was “−ve (−ve and +ve indicate that the value is below and above respectively, the no significant effect threshold, defined as 30% inhibition at 1 μg/mL at the time point indicated.)”.
With `CC(C)c1cc(NC(=O)Nc2ccc(Oc3ccnc(Nc4ccc5[nH]ncc5c4)n3)c3ccccc23)n(-c2cccc(OCCN3CCOCC3)c2)n1` [Example 53, 1-(4-((2-((1H-indazol-5-yl)amino)pyrimidin-4-yl)oxy)naphthalen-1-yl)-3-(3-isopropyl-1-(3-(2-morpholinoethoxy)phenyl)-1H-pyrazol-5-yl)urea], the IC50 against p38 MAPKα amounted to 8 nM; on cSrc, 4 nM; against GSK3α it was 11300 nM; on Syk, 3 nM; in series [2] it was 38.5 nM; in series [3] it was 173 nM. Besides, the EC50 in series [1] is 49.1 nM. In the series on d-U937 cells, the “MTT Assay Cell viability at time point in d-U937 cells 4 h” value is “−ve (−ve and +ve indicate that the value is below and above respectively, the no significant effect threshold, defined as 30% inhibition at 1 μg/mL at the time point indicated.)”. Moreover, in the series with d-U937 cells, the “MTT Assay Cell viability at time point in d-U937 cells 24 h” value was “−ve (−ve and +ve indicate that the value is below and above respectively, the no significant effect threshold, defined as 30% inhibition at 1 μg/mL at the time point indicated.)”.
